The values that follow come from US20140024653A1, “COMPOSITIONS AND METHODS FOR TREATING CANCER USING PI3K INHIBITOR AND MEK INHIBITOR” (priority 2011, published 2014).

One data set has as its system CASKI. Nature of the data set: SRB cell growth assay, 72 h. To be noted: single agent. The class given is cell-based, human.
In another data set the test system is CAKI1. Nature of the data set: SRB cell growth assay, 72 h. The conditions noted are these: Homo sapiens, CAKI-1, most sensitive, z-score <−1.5. The data set is classed as cell-based. The procedure: (§1) Cell growth and treatment were performed in 96-well microtitre plates CELLSTAR® (Greiner Bio-One, Germany). Cells harvested from exponential phase cultures by trypsinization were plated in 150 μl of media at optimal seeding densities. The optimal seeding densities for each cell line were determined to ensure exponential growth for the duration of the experiment. All cells growing without anticancer agents were sub-confluent by the end of the treatment as determined by visual inspection.
(§2) 150 μl of cells, after a 24-hour pre-growth period, were treated by mixing with 50 μl of the compound containing media (resulting in a final DMSO concentration of 0.1%). The cells were allowed to grow at 37° C. for 72 hours. In addition, all experiments contained a few plates with cells that were processed for measurement immediately after the 24 hours recovery period. These plates contained information about the cell number that existed before treatment, at time zero, and served to calculate the cytotoxicity.
(§3) After treatment, cells were precipitated by addition of 10% TCA. Prior to fixation, the media was aspirated as described. After an hour of incubation at 4° C., the plates were washed two times with 400 μl of deionized water. Cells were then stained with 100 μl of a 0.08% wt/v SRB. The plates were allowed to sit for at least 30 min. and washed six times with 1% acetic acid to remove unbound stain. The plates were left to dry at room temperature and bound SRB was solubilized with 100 μl of 10 mM Tris base. Measurement of optical density was performed at 560 nm on a Victor 2 plate reader (Perkin Elmer, Germany). The SRB values for A375 and H460 cell lines were near to saturation (2.5 OD units) due to the high protein content of these cells, but not cell confluence. The measurements for these cells were performed at 520 nm instead of 560 nm.
(§4) Using these measurements, cellular responses can be calculated for incomplete inhibition of cell growth (GI), complete inhibition of cell growth (T GI) and net loss of cells (LC) due to compound activity. […] This is the drug concentration causing a 50% reduction compared to the net protein increase in control cells during the drug incubation period. In other words, GI50 is IC50 corrected for time zero. Similar to IC90, calculated GI90 values are also reported for all compounds tested. TGI was calculated from Ti=Tz. […] It was calculated as 100×[(Ti−Tz)/Tz]=−50. However, due to 72 hours treatment, low cell seeding density was required and LC50 could rarely be achieved.

The next data set relates to SW620. Briefly: SRB cell growth assay, 72 h. To be noted: Homo sapiens, SW-620, non-sensitive, z score >1.5. The data set is classed as cell-based. The procedure: as §1, §2, §3, §4
For data set [1], the system named is human pancreatic MiaPaCa-2. Briefly: antitumor activity against subcutaneous MiaPaCa-2 xenografts. To be noted: 21 days. The class given is in vivo, nude mice. As for the experimental part:
The human pancreatic cancer cell line MiaPaCa-2 (American Type Culture Collection, Manassas Va.), was cultured in MEM medium containing 10% fetal bovine serum, 1% essential amino acid, 1% sodium pyruvate (Life Technologies, Carlsbad, Calif.). […] Cells were re-suspended in PBS (Life Technologies, Carlsbad, Calif.) and then mixed 1:1 with Matrigel (BD Biosciences, San Jose, Calif.). Cells were stored at 4° C. until implantation. MiaPaCa-2 cells (10×10^6 in a 200 μl PBS:Matrigel (1:1) suspension) were subcutaneously injected into the right flank area of female nude (Crl:NU-Foxn1nu) mice (6-8 weeks old, Charles River Laboratories, Wilmington, Mass.). All mice in this study were used according to the guidelines approved by the EMD-Serono Institutional Care and Animal Use Committee (IACUC), #07-003. Developing tumors located in the right flank area of female nude mice were measured over time with digital calipers. […] The remaining tumor-bearing mice were randomized into seven experimental groups (n=9), so that each group had the same mean tumor volume. […] The treatments began on the seventh day following implantation of the Miapaca-2 cells, which was designated as Day 0 for data evaluation purposes. […] Body weights and tumor volumes were assessed twice per week post treatment initiation. […] Efficacy was determined by analyzing tumor volumes and the percent ΔT/ΔC (% ΔT/ΔC). Tumor volume was determined by using the tumor length (1) and width (w) measurements and calculating the volume with the equation 1*w^2/2. The length was measured along the longest axis of the tumor and width was measured perpendicular to that length. The mean percent of actual tumor growth inhibited by the treatments was calculated as follows: [% ΔT/ΔC=(([…]))×100%], where TV=tumor volume, f=final, i=initial and Ctrl=control group. Tolerability was assessed by regarding percent body weight difference during the treatment period. Percent body weight difference was calculated as follows: [% Body weight difference=(BWc-BWi)/BWi×100%], where BW=body weight, c=current, i=initial.

Data set [2] deals with human primary colon tumors CR-LRB-009C. Nature of the data set: antitumor activity against subcutaneous CR-LRB-009C xenografts. The class given is in vivo. The conditions noted are these: for tolerability: as single agents or used in combination. The procedure:
The human primary colon carcinoma CR-LRB-009C tumor model was established by implanting (SC) small tumor fragments and was maintained in SCID female mice using serial passages.
Treatments were administered on measurable tumors. […] Mice were checked daily, and adverse clinical reactions noted.
Animal body weights included the tumor weight.
The primary efficacy end points are ΔT/ΔC, percent median regression, partial and complete regressions (PR and CR). Statistical analyses were performed on SAS system release 8.2 for SUN4 via Everstat V5 software and SAS 9.2 software. A probability less than 5% (p<0.05) was considered as significant.

For another data set, the system named is A375. Nature of the data set: SRB cell growth assay, 72 h. The data set is classed as cell-based. To be noted: Homo sapiens, A-375, most sensitive cell lines. As for the experimental part: as §1, §2, §3, §4
Another data set has as its system CLS439. Briefly: SRB cell growth assay, 72 h. The conditions noted are these: Homo sapiens, highest tested concentration 50 μM, read-out: activity (estimated). The data set is classed as cell-based. As for the experimental part: as §1, §2, §3, §4
The next data set has as its system EFO21. Briefly: SRB cell growth assay, 72 h. The class given is cell-based. The conditions noted are these: Homo sapiens, EFO-21, highest tested concentration 50 μM, read-out: activity (estimated). The procedure:
as §1, §2, §3, §4

In another data set the test system is HT29. Briefly: SRB cell growth assay, 72 h. The data set is classed as cell-based. To be noted: Homo sapiens, HT-29, most sensitive cell lines. As for the experimental part: as §1, §2, §3, §4
The subject of the next data set is PC3. Briefly: SRB cell growth assay, 72 h. The data set is classed as cell-based. To be noted: Homo sapiens, PC-3, highest tested concentration 50 μM, read-out: activity (estimated). As for the experimental part:
as §1, §2, §3, §4

The test system of the next data set is SAOS2. Nature of the data set: SRB cell growth assay, 72 h. The data set is classed as cell-based. To be noted: Homo sapiens, SAOS-2, highest tested concentration 50 μM, read-out: activity (estimated). As for the experimental part: as §1, §2, §3, §4
In a further data set the test system is SKNAS. Nature of the data set: SRB cell growth assay, 72 h. The data set is classed as cell-based. The conditions noted are these: Homo sapiens, SK-N-AS, most sensitive cell lines. The procedure: as §1, §2, §3, §4
Where [3] appears, read: (2b) 20 mg/kg PO daily days 11-21.
[4] abbreviates: (1) 20 mg/kg PO daily days 11-21.

The structures appear in SMILES notation. Bounds are passed on as bounds.

As usually defined, the GI50 is the concentration at which growth is held to half of that of the control. A low value points to more potent growth inhibition. For the compound `CCn1c(=O)c(-c2ccn[nH]2)cc2c(C)nc(N)nc21` [Compound (2b), 2-amino-8-ethyl-4-methyl-6-(1H-pyrazol-5-yl)pyrido[2,3-d]pyrimidin-7(8H)-one], in the data set with CASKI, the “z-score MSC0765” value is −0.23. In the data set with CAKI1, this compound yielded a concentration for 50% growth inhibition (GI50) of less than 500 nM. The compound further yielded a GI50 in the data set with SW620 greater than 4000 nM. The “% ΔT/ΔC” value in data set [1] (XL-765 30 mg/kg po QD, 30 mg/kg) is reported as 77.0%. Besides, in [2] (setting [3]), the “Average body weight change in % per mouse at nadir” value is −7.4 (19) %, the Drug death is 0/7, the “Median ΔT/ΔC in % day 21” value was determined as 51% and the “Regressions Complete” value is 0/7. For the same compound, the “Regressions Partial” value in data set [2] (setting [3]) is 0/7. Moreover, the tolerability result in [2] is “tolerated, inducing some BWL but not reaching toxicity”.

As to `O=C(NC[C@H](O)CO)c1ccncc1Nc1ccc(I)cc1F` [Compound (1), N—((S)-2,3-dihydroxypropyl)-3-(2-fluoro-4-iodo-phenylamino)isonicotinamide], in the data set on CASKI, the “z-score MSC6369” value amounted to 1.55. Also, the IC50 in the data set with A375 was 4.8 to 8 nM; with CLS439 it was greater than 50000 nM; with EFO21, greater than 50000 nM; with HT29, 4.8 to 8 nM; in the data set with PC3 it was greater than 50000 nM; in the data set with SAOS2, greater than 50000 nM. For the same compound, the IC50 in the data set with SKNAS fell in the range of 4.8 to 8 nM. In addition, in [1] (AS703026 5 mg/kg po QD, 5 mg/kg), the “% ΔT/ΔC” value is on record as 56.2%. For the same compound, the “Average body weight change in % per mouse at nadir” value in data set [2] (setting [4]) is −7.7 (20) %. The Drug death in data set [2] (setting [4]) is listed as 0/7. In data set [2] (setting [4]), the “Regressions Complete” value is 0/7. Moreover, in data set [2] (setting [4]), the “Regressions Partial” value is recorded as 0/7. In addition, the “Median ΔT/ΔC in % day 21” value in data set [2] ((1) 20 mg/kg PO daily days 11-21, 20 mg/kg) was 53%. Also, the tolerability entry in data set [2] is listed as “tolerated, inducing some BWL but not reaching toxicity”.
